Assays:
[1] = target: T1, full-length human tau (T40) / 12 kD PHF-core tau fragment (Homo sapiens, UniProt P10636); details: for inhibition of 12 kD:T40 ratio (in words): IPTG 0-50 μM, thionine and tolonium chloride with 200 μM DTT/ascorbate, chlorpromazine and tacrine without reducing agents
[2] = Extent of reduction of diaminophenothiazines by DTT or ascorbic acid; assay type: physicochemical; details: approx. 500:1 DTT excess, at 120 minutes
[3] = target: T1, full-length human tau (T40) / 12 kD PHF-core tau fragment; test: cell-based
[4] = in vivo; cited from earlier work

T1 sequence (P10636 1-441 isoform P10636-8): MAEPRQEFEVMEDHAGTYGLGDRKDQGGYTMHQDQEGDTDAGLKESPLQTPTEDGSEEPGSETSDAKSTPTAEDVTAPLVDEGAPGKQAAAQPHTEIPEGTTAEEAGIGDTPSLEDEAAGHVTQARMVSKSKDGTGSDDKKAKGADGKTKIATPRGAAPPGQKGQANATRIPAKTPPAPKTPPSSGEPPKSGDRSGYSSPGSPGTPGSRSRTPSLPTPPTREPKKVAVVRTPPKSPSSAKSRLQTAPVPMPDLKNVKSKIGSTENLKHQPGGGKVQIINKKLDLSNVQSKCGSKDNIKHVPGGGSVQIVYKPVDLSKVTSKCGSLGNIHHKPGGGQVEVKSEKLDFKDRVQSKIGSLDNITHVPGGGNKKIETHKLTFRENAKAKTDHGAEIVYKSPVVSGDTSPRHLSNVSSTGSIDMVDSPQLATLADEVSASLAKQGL

Compound | inhibition of 12 kD:T40 ratio (in words) [1] | extent of reduction [2] | Ki [3] | further results
thionine | essentially identical inhibition | completely reduced |  | toxicity to cells of the assay [1]: toxic; conversion of induced T40 into the 12 kD fragment ([1]; 2 μM thionine (reduced), increasing IPTG): not converted into the 12 kD fragment
CN(C)CCCN1c2ccccc2Sc2ccc(Cl)cc21 [chlorpromazine] | non-inhibitory |  | 2120 nM | 
Nc1c2c(nc3ccccc13)CCCC2 [tacrine] | non-inhibitory |  | 802 nM | 
Cc1cc2nc3ccc(N(C)C)cc3[s+]c2cc1N [tolonium chloride] |  |  |  | half live in blood [4]: approximately 100 minutes
Cc1cc(N(C)C)cc2[s+]c3cc(N(C)C)cc(C)c3nc12 [DMMB, 1,9-Dimethylmethylene Blue] |  | relatively little reduced |  | effect on tau degradation products within the cell ([1]; 1 μM DMMB, with and without IPTG induction): effectively abolished all degradation products; IC50 ([1]; read-out: cellular B50 value, base-line expression of the 12/14 kD species, concentration reducing 12 kD production to 50%): ~100 nM

From patent publication US7335505B2, “Materials and methods relating to protein aggregation in neurodegenerative disease” (Wista Laboratories Ltd., priority 2001, dated 2008)
